Test results from patent US12145933B2, “Hemi (L)-tartrate forms of 3-({5-chloro-1-[3-(methylsulfonyl)propyl]-1H-indol-2-yl}methyl)-1-(2,2,2-trifluoroethy)-1,3-dihydro-2H-imidazo[4,5-C]pyridin-2-one and pharmaceutical compositions comprising the same” (Janssen Sciences Ireland Unlimited Company, priority 2020, dated 2024).
Converted amounts (≈) assume the structure as drawn. “And” between values parts separate entries of the source, which are not always exact repeats. Equal entries are not always repeated. “Also recorded” adds a separate entry of the source. Where two headings read alike, the source gives them in different places. Values belong to the molecule of their own block, whether it stands above or below them.

Experiments:
Type in all cases: physicochemical
[1] = Equilibrium (thermodynamic) solubility in fed state human intestinal fluids; conditions: for solubility Conc / solubility at 24 h: Fed HR pool human intestinal fluids, 37° C., 24 hours; for solubility at 24 h: human, 37 °C, plasma or biological fluid, thermodynamic from solid
Protocol: Determination of the equilibrium solubility of rilematovir in its free base form and its hemi (L)-tartrate form in fed state human intestinal fluids.
The thermodynamic solubility of rilematovir and the hemi (L)-tartrate form of rilematovir was determined using human intestinal fluids obtained from human volunteers in fed state. The pools of human intestinal fluids were prepared from individual intestinal aspirates collected among healthy volunteers under fed state conditions. Fed HR (high responders) pools were build up from duodenal samples in the fed state from volunteers with a clear postprandial bile salt increase.
A small magnetic stirrer bar (about 5 mm in length) and 300 μl of the respective human intestinal fluids at 37° C. were added to the Eppendorf tubes containing an excess of test compound. The mixtures were vortexed for a few seconds and placed on a magnetic stirrer plate (100 rpm) at 37° C.
After 24 hours, the Eppendorf tubes were centrifuged for 5 minutes at 12000 rpm (to separate dissolved from non-dissolved material). 10 µl of the supernatant was diluted into 100 μl methanol), well mixed and centrifuged for 1 minute to separate precipitated protein fraction. The test compound was quantified in the resulting supernatant using UPLC-UV quantification.
The pH was measured at the end of the experiment for each condition (pHend in Table 1).

[2] = Kinetic solubility in biorelevant media (FaSSIF, FeSSIF) with and without HPMC E5; conditions: for solubility kinetic at 30 min / solubility kinetic at 60 min / solubility kinetic at 120 min: thermodynamic from solid, as μg rilematovir/mL; for solubility kinetic at 30 min: read-out: kinetic solubility, concentration at 30 minutes; for solubility kinetic at 60 min: read-out: kinetic solubility, concentration at 60 minutes; for solubility kinetic at 120 min: read-out: kinetic solubility, concentration at 120 minutes
Protocol: The kinetic solubility of rilematovir and the hemi (L)-tartrate form of rilematovir in different biorelevant medium (FaSSIF and FeSSIF) in the presence or absence of HPMC E5 was analysed.
An excess amount of rilematovir or the hemi (L)-tartrate form of rilematovir was added to biorelevant medium (approximately 5 mg solid/mL medium was used).
The media were stirred at 150 rpm at a temperature of 37° C. Time-dependent measurements were performed by removing 10 mL aliquots after 30 minutes, 1 hour and 2 hours. Undissolved solid material in the aliquot was removed using a Whatman SPARTAN RC syringe filter (diameter: 30 mm; pore size: 0.2 μm). Afterwards, a suitable dilution was made in NMP/water 30/70; v/v to avoid precipitation. The concentration of rilematovir, or the hemi (L)-tartrate form of rilematovir, in solution was determined using UPLC-UV.

[3] = Intrinsic dissolution rate (IDR), μDISS Profiler; conditions: for IDR: 37.0 ± 0.5° C., 100 rpm
Protocol: The intrinsic dissolution rate (IDR) describes how fast a compound is released from its solid-state form into solution. The intrinsic dissolution rate is defined as the rate of dissolution of a pure active pharmaceutical ingredient when surface area, stirring speed, pH and ionic-strength of the dissolution medium are kept constant. Thus, it is measured as the release of API from a flat and well-defined surface area into an aqueous solution at a given pH value. By exposing the surface area of a material to an appropriate dissolution medium while maintaining constant temperature, stirring rate, and pH, the intrinsic dissolution rate can be determined. Typically the intrinsic dissolution is expressed in terms of mg per minute per cm^2.
Intrinsic Dissolution Method Parameters:
Pellet Compression Parameters

[4] = Long term storage of liquid aqueous suspension (disproportionation, polymorph conversion)
Protocol: A liquid aqueous suspension comprising Form 1 of the hemi (L)-tartrate form of rilematovir as described in Examples 10, 11, 14 or 15 was stored in a sealed glass vial at a temperature of 30° C., 40° C., and 50° C. Over a period of 8 months samples were taken and analysed (e.g. by XPRD or solid state ^19F-NMR spectroscopy).
FIG. 6 is the solid state ^19F-NMR spectrum of Form 1 having peaks at −70.004 ppm and −73.248 ppm. FIG. 7 is the solid state ^19F-NMR spectrum of Form 3 having a peak at −70.122 ppm.

[5] = aqueous with cosolvent or surfactant or cyclodextrin, FaSSIF pH 6.5, HPMC E5 1.39 mg/mL, 37° C.
[6] = aqueous with cosolvent or surfactant or cyclodextrin, FeSSIF pH 5.0, HPMC E5 1.39 mg/mL, 37° C.
[7] = FaSSIF pH 6.5, no HPMC E5, 37° C.
[8] = FeSSIF pH 5.0, no HPMC E5, 37° C.
[9] = FaSSIF with HPMC E5, aqueous with cosolvent or surfactant or cyclodextrin, FaSSIF pH 6.5, HPMC E5 1.39 mg/mL, 37° C.
[10] = FeSSIF with HPMC E5, aqueous with cosolvent or surfactant or cyclodextrin, FeSSIF pH 5.0, HPMC E5 1.39 mg/mL, 37° C.

solubility Conc ([1]; single determinations, listed as hemi tartrate form): 122.93 µg/mL and 126.92 µg/mL
solubility in fed state human intestinal fluids relative to free base form ([1]; fed state human intestinal fluids): more than three times higher
solubility at 24 h ([1]; average of three, read-out: solubility Average): 117 µg/mL
solubility at 24 h ([1]; single determinations, read-out: solubility Conc): 102 µg/mL
solubility kinetic at 30 min [2, 5]: 108 µg/mL
solubility kinetic at 60 min [2, 5]: 93.1 µg/mL
solubility kinetic at 120 min [2, 5]: 75.9 µg/mL
solubility kinetic at 30 min [2, 6]: 1010 µg/mL
solubility kinetic at 60 min [2, 6]: 853 µg/mL
solubility kinetic at 120 min [2, 6]: 689 µg/mL
solubility kinetic at 30 min [2, 7]: 4.4 µg/mL
solubility kinetic at 60 min [2, 7]: 3.4 µg/mL
solubility kinetic at 120 min [2, 7]: 3 µg/mL
solubility kinetic at 30 min [2, 8]: 82.8 µg/mL
solubility kinetic at 60 min [2, 8]: 67.1 µg/mL
solubility kinetic at 120 min [2, 8]: 58.6 µg/mL
IDR ([3]; Medium: 0.01N HCl): 147 μg/min/cm^2
IDR ([3]; Medium: Blank FaSSIF): 5.45 μg/min/cm^2
IDR ([3]; Medium: FASSIF): 2.10 μg/min/cm^2
polymorph conversion in liquid aqueous suspension ([4]; storage of aqueous suspension over time, XRPD and solid state 19F-NMR): over time Form 1 converts into Form 3
Structure (SMILES): CS(=O)(=O)CCCn1c(Cn2c(=O)n(CC(F)(F)F)c3ccncc32)cc2cc(Cl)ccc21.O=C(O)C(O)C(O)C(=O)O [hemi (L)-tartrate form of rilematovir]
kinetic solubility relative to free base ([2]; biorelevant media, absence of the suspending agent HPMC): three (in FaSSIF) to six (in FeSSIF) times higher
intrinsic dissolution rate (IDR) compared with free base form ([3]; three biorelevant media): higher than the free base form of rilematovir
disproportionation in liquid aqueous suspension ([4]; sealed glass vial, 30° C., 40° C., 50° C., 8 months, XRPD or solid state 19F-NMR): does not disproportionate; also recorded: no disproportionation has been observed

IDR ([3]; Medium: 0.01N HCl): 32.77 μg/min/cm^2
IDR ([3]; Medium: Blank FaSSIF): 1.62 μg/min/cm^2
IDR ([3]; Medium: FASSIF): 1.18 μg/min/cm^2
Structure (SMILES): CS(=O)(=O)CCCn1c(Cn2c(=O)n(CC(F)(F)F)c3ccncc32)cc2cc(Cl)ccc21.CS(=O)(=O)CCCn1c(Cn2c(=O)n(CC(F)(F)F)c3ccncc32)cc2cc(Cl)ccc21.O=C(O)C(=O)O [hemi oxalic co-crystal]

solubility Conc ([1]; single determinations, listed as free base): 36.80 µg/mL and 32.50 µg/mL
solubility at 24 h ([1]; fed state human intestinal fluids (Fed HR pool), average of three, read-out: solubility Average): 34.4 µg/mL (≈ 68.7 µM)
solubility at 24 h ([1]; fed state human intestinal fluids (Fed HR pool), single determinations, read-out: solubility Conc): 34 µg/mL (≈ 67.8 µM)
solubility kinetic at 30 min [2, 9]: 1.2 µg/mL (≈ 2.4 µM)
solubility kinetic at 60 min [2, 9]: 1.3 µg/mL (≈ 2.6 µM)
solubility kinetic at 120 min [2, 9]: 1.5 µg/mL (≈ 2.99 µM)
solubility kinetic at 30 min [2, 10]: 12.3 µg/mL (≈ 24.6 µM)
solubility kinetic at 60 min [2, 10]: 13.4 µg/mL (≈ 26.8 µM)
solubility kinetic at 120 min [2, 10]: 13.9 µg/mL (≈ 27.7 µM)
solubility kinetic at 30 min [2, 7]: 1.1 µg/mL (≈ 2.2 µM)
solubility kinetic at 60 min [2, 7]: 1.1 µg/mL (≈ 2.2 µM)
solubility kinetic at 120 min [2, 7]: 1.2 µg/mL (≈ 2.4 µM)
solubility kinetic at 30 min [2, 8]: 12.5 µg/mL (≈ 25 µM)
solubility kinetic at 60 min [2, 8]: 13.2 µg/mL (≈ 26.4 µM)
solubility kinetic at 120 min [2, 8]: 13.7 µg/mL (≈ 27.3 µM)
IDR ([3]; Medium: 0.01N HCl): 8.98 μg/min/cm^2
IDR ([3]; Medium: Blank FaSSIF): 3.06 μg/min/cm^2
IDR ([3]; Medium: FASSIF): <1 μg/min/cm^2
Structure (SMILES): CS(=O)(=O)CCCn1c(Cn2c(=O)n(CC(F)(F)F)c3ccncc32)cc2cc(Cl)ccc21 [rilematovir, 3-({5-chloro-1-[3-(methylsulfonyl)propyl]-1H-indol-2-yl}methyl)-1-(2,2,2-trifluoroethyl)-1,3-dihydro-2H-imidazo[4,5-c]pyridin-2-one]
